Assay results as given in PubChem BioAssay (NCI).
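These data come from cells grown in 96-well plates and exposed to compound for 48 hours at five concentrations. The concentration for full growth arrest is given as TGI.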

Legend:
Assay in all cases: growth of human tumour cells (NCI), 48 h
A498 renal = test system: A498 renal
COLO 205 colon = test system: COLO 205 colon
ACHN renal = test system: ACHN renal
EKVX NSCLC = test system: EKVX NSCLC
SW-620 colon = test system: SW-620 colon
LOX IMVI melanoma = test system: LOX IMVI melanoma
HOP-92 NSCLC = test system: HOP-92 NSCLC
HT29 colon = test system: HT29 colon
HL-60(TB) leukemia = test system: HL-60(TB) leukemia
SNB-19 CNS = test system: SNB-19 CNS
SR leukemia = test system: SR leukemia
NCI-H522 lung = test system: NCI-H522 lung
MALME-3M melanoma = test system: MALME-3M melanoma
SK-MEL-2 melanoma = test system: SK-MEL-2 melanoma
DLD-1 colon = test system: DLD-1 colon
OVCAR-5 ovarian = test system: OVCAR-5 ovarian
DMS 114 small cell lung = test system: DMS 114 small cell lung
IGROV1 ovarian = test system: IGROV1 ovarian
A549 NSCLC = test system: A549 NSCLC
KM12 colon = test system: KM12 colon
HOP-62 NSCLC = test system: HOP-62 NSCLC
NCI-H226 lung = test system: NCI-H226 lung
HCT-15 colon = test system: HCT-15 colon
M14 melanoma = test system: M14 melanoma
SF-268 CNS = test system: SF-268 CNS
CAKI-1 renal = test system: CAKI-1 renal
SF-539 CNS = test system: SF-539 CNS
U251 CNS = test system: U251 CNS
M19-MEL melanoma = test system: M19-MEL melanoma
SN12C renal = test system: SN12C renal
OVCAR-4 ovarian = test system: OVCAR-4 ovarian
TK-10 renal = test system: TK-10 renal
K-562 leukemia = test system: K-562 leukemia
UO-31 renal = test system: UO-31 renal
HCC-2998 colon = test system: HCC-2998 colon
OVCAR-3 ovarian = test system: OVCAR-3 ovarian
UACC-257 melanoma = test system: UACC-257 melanoma
NCI-H460 lung = test system: NCI-H460 lung
SK-MEL-5 melanoma = test system: SK-MEL-5 melanoma
MOLT-4 leukemia = test system: MOLT-4 leukemia
HOP-18 NSCLC = test system: HOP-18 NSCLC
SNB-78 CNS = test system: SNB-78 CNS
CCRF-CEM leukemia = test system: CCRF-CEM leukemia
DMS 273 small cell lung = test system: DMS 273 small cell lung
UACC-62 melanoma = test system: UACC-62 melanoma
XF 498 CNS = test system: XF 498 CNS
HCT-116 colon = test system: HCT-116 colon
OVCAR-8 ovarian = test system: OVCAR-8 ovarian
RPMI-8226 leukemia = test system: RPMI-8226 leukemia
SK-MEL-28 melanoma = test system: SK-MEL-28 melanoma
786-0 renal = test system: 786-0 renal
KM20L2 colon = test system: KM20L2 colon
NCI-H23 lung = test system: NCI-H23 lung
SNB-75 CNS = test system: SNB-75 CNS
LXFL 529 NSCLC = test system: LXFL 529 NSCLC
RXF 393 renal = test system: RXF 393 renal
SF-295 CNS = test system: SF-295 CNS
SK-OV-3 ovarian = test system: SK-OV-3 ovarian

## Cc1cccc(C)c1NC(=O)CCc1nnc2s/c(=C\c3ccc(Cl)cc3)c(=O)n12
A498 renal
  TGI: > 100 µM
COLO 205 colon
  TGI: > 100 µM
ACHN renal
  TGI: > 100 µM
EKVX NSCLC
  TGI: > 100 µM
SW-620 colon
  TGI: 40.2 µM
LOX IMVI melanoma
  TGI: > 100 µM
HOP-92 NSCLC
  TGI: > 100 µM
HT29 colon
  TGI: > 100 µM
HL-60(TB) leukemia
  TGI: > 100 µM
SNB-19 CNS
  TGI: > 100 µM
SR leukemia
  TGI: > 100 µM
NCI-H522 lung
  TGI: > 100 µM
MALME-3M melanoma
  TGI: > 100 µM
SK-MEL-2 melanoma
  TGI: > 100 µM
DLD-1 colon
  TGI: > 100 µM
OVCAR-5 ovarian
  TGI: > 100 µM
DMS 114 small cell lung
  TGI: > 100 µM
IGROV1 ovarian
  TGI: > 100 µM
A549 NSCLC
  TGI: > 100 µM
KM12 colon
  TGI: > 100 µM
HOP-62 NSCLC
  TGI: > 100 µM
NCI-H226 lung
  TGI: > 100 µM
HCT-15 colon
  TGI: 36.2 µM
M14 melanoma
  TGI: > 100 µM
SF-268 CNS
  TGI: > 100 µM
CAKI-1 renal
  TGI: > 100 µM
SF-539 CNS
  TGI: > 100 µM
U251 CNS
  TGI: > 100 µM
M19-MEL melanoma
  TGI: > 100 µM
SN12C renal
  TGI: > 100 µM
OVCAR-4 ovarian
  TGI: > 100 µM
TK-10 renal
  TGI: > 100 µM
K-562 leukemia
  TGI: > 100 µM
UO-31 renal
  TGI: > 100 µM
HCC-2998 colon
  TGI: > 100 µM
OVCAR-3 ovarian
  TGI: > 100 µM
UACC-257 melanoma
  TGI: > 100 µM
NCI-H460 lung
  TGI: > 100 µM
SK-MEL-5 melanoma
  TGI: > 100 µM
MOLT-4 leukemia
  TGI: > 100 µM
HOP-18 NSCLC
  TGI: > 100 µM
SNB-78 CNS
  TGI: > 100 µM
CCRF-CEM leukemia
  TGI: > 100 µM
DMS 273 small cell lung
  TGI: > 100 µM
UACC-62 melanoma
  TGI: > 100 µM
XF 498 CNS
  TGI: > 100 µM
HCT-116 colon
  TGI: 57.2 µM
OVCAR-8 ovarian
  TGI: > 100 µM
RPMI-8226 leukemia
  TGI: > 100 µM
SK-MEL-28 melanoma
  TGI: > 100 µM
786-0 renal
  TGI: > 100 µM
KM20L2 colon
  TGI: > 100 µM
NCI-H23 lung
  TGI: > 100 µM
SNB-75 CNS
  TGI: > 100 µM
LXFL 529 NSCLC
  TGI: > 100 µM
RXF 393 renal
  TGI: > 100 µM
SF-295 CNS
  TGI: > 100 µM
SK-OV-3 ovarian
  TGI: > 100 µM

## CCCN1CN(C(C(=O)N[C@@H]2C(=O)N3C(C(=O)O)=C(C)CSC23)c2ccc(O)cc2)CSC1=S (some centres not stated)
A498 renal
  TGI: > 100 µM
COLO 205 colon
  TGI: > 100 µM
ACHN renal
  TGI: > 100 µM
EKVX NSCLC
  TGI: > 100 µM
SW-620 colon
  TGI: 30.8 µM
LOX IMVI melanoma
  TGI: > 100 µM
HOP-92 NSCLC
  TGI: > 100 µM
HT29 colon
  TGI: > 100 µM
HL-60(TB) leukemia
  TGI: > 100 µM
SNB-19 CNS
  TGI: > 100 µM
NCI-H522 lung
  TGI: > 100 µM
MALME-3M melanoma
  TGI: > 100 µM
SK-MEL-2 melanoma
  TGI: > 100 µM
DLD-1 colon
  TGI: > 100 µM
OVCAR-5 ovarian
  TGI: > 100 µM
DMS 114 small cell lung
  TGI: > 100 µM
IGROV1 ovarian
  TGI: > 100 µM
A549 NSCLC
  TGI: > 100 µM
KM12 colon
  TGI: > 100 µM
HOP-62 NSCLC
  TGI: > 100 µM
HCT-15 colon
  TGI: > 100 µM
M14 melanoma
  TGI: > 100 µM
SF-268 CNS
  TGI: > 100 µM
CAKI-1 renal
  TGI: > 100 µM
SF-539 CNS
  TGI: > 100 µM
U251 CNS
  TGI: > 100 µM
M19-MEL melanoma
  TGI: > 100 µM
SN12C renal
  TGI: > 100 µM
OVCAR-4 ovarian
  TGI: > 100 µM
TK-10 renal
  TGI: > 100 µM
K-562 leukemia
  TGI: > 100 µM
UO-31 renal
  TGI: > 100 µM
OVCAR-3 ovarian
  TGI: > 100 µM
UACC-257 melanoma
  TGI: > 100 µM
NCI-H460 lung
  TGI: > 100 µM
SK-MEL-5 melanoma
  TGI: > 100 µM
MOLT-4 leukemia
  TGI: > 100 µM
HOP-18 NSCLC
  TGI: > 100 µM
SNB-78 CNS
  TGI: > 100 µM
CCRF-CEM leukemia
  TGI: > 100 µM
DMS 273 small cell lung
  TGI: > 100 µM
UACC-62 melanoma
  TGI: > 100 µM
XF 498 CNS
  TGI: > 100 µM
HCT-116 colon
  TGI: > 100 µM
OVCAR-8 ovarian
  TGI: > 100 µM
RPMI-8226 leukemia
  TGI: > 100 µM
SK-MEL-28 melanoma
  TGI: > 100 µM
786-0 renal
  TGI: > 100 µM
KM20L2 colon
  TGI: > 100 µM
NCI-H23 lung
  TGI: > 100 µM
SNB-75 CNS
  TGI: > 100 µM
LXFL 529 NSCLC
  TGI: > 100 µM
SF-295 CNS
  TGI: > 100 µM
SK-OV-3 ovarian
  TGI: > 100 µM
